Measurements from ChEMBL document CHEMBL1770072, “Antiplasmodial and antitumor activity of dihydroartemisinin analogs derived via the aza-Michael addition reaction” (Bioorg Med Chem Lett, 2011).

What was measured:
Plasmodium falciparum [1] = assay: Resistance index, ratio of IC50 for chloroquine-resistant Plasmodium falciparum Dd2 to IC50 for chloroquine-sensitive Plasmodium falciparum D10; assay type: functional
HeLa [2] = assay: Cytotoxicity against human HeLa cells after 7 days by MTT assay; assay type: functional, cell-based; conditions: 168 h
[3] = Cytotoxicity against phytohaemagglutinin-stimulated human lymphocytes after 3 days by MTT assay; assay type: cell-based; conditions: Lymphocyte, 72 h
HeLa [4] = assay: Tumor specificity, ratio of IC50 for human resting and phytohaemagglutinin-stimulated lymphocytes to IC50 for human HeLa cells
Plasmodium falciparum [5] = assay: Antiplasmodial activity against chloroquine-resistant Plasmodium falciparum Dd2; assay type: functional, organism-based
[6] = Cytotoxicity against human resting lymphocytes after 3 days by MTT assay; assay type: cell-based; conditions: Lymphocyte, 72 h
Plasmodium falciparum [7] = assay: Antiplasmodial activity against chloroquine-sensitive Plasmodium falciparum D10; assay type: functional, organism-based

C=CC(=O)O[C@@H]1O[C@@H]2O[C@@]3(C)CC[C@H]4[C@H](C)CC[C@@H]([C@H]1C)[C@@]24OO3
Ratio IC50 (Plasmodium falciparum [1]): 1.6 | IC50 (HeLa [2]): 6.37 µM | IC50 [3]: 11.5 µM | Ratio IC50 (HeLa [4]): 4 | IC50 (Plasmodium falciparum [5]): 0.00927 µM | IC50 [6]: 39.6 µM | IC50 (Plasmodium falciparum [7]): 0.00585 µM

C=CC(=O)O[C@H]1O[C@@H]2O[C@@]3(C)CC[C@H]4[C@H](C)CC[C@@H]([C@H]1C)[C@@]24OO3
Ratio IC50 (Plasmodium falciparum [1]): 1.6 | IC50 (HeLa [2]): 2.88 µM | IC50 [3]: 9.22 µM | Ratio IC50 (HeLa [4]): 6.9 | IC50 (Plasmodium falciparum [5]): 0.0124 µM | IC50 [6]: 30.5 µM | IC50 (Plasmodium falciparum [7]): 0.00754 µM

C[C@H]1[C@@H](OC(=O)CCNCCNc2ccnc3cc(Cl)ccc23)O[C@@H]2O[C@@]3(C)CC[C@H]4[C@H](C)CC[C@@H]1[C@@]24OO3
Ratio IC50 (Plasmodium falciparum [1]): 1 | IC50 (HeLa [2]): 9.47 µM | IC50 [3]: 16.9 µM | Ratio IC50 (HeLa [4]): 1.8 | IC50 (Plasmodium falciparum [5]): 0.0201 µM | IC50 [6]: > 50 µM | IC50 (Plasmodium falciparum [7]): 0.0206 µM

C[C@H]1[C@@H](OC(=O)CCNCCCNc2ccnc3cc(Cl)ccc23)O[C@@H]2O[C@@]3(C)CC[C@H]4[C@H](C)CC[C@@H]1[C@@]24OO3
Ratio IC50 (Plasmodium falciparum [1]): 1.3 | IC50 (HeLa [2]): 5.58 µM | IC50 [3]: 4.71 µM | Ratio IC50 (HeLa [4]): 2.4 | IC50 (Plasmodium falciparum [5]): 0.0244 µM | IC50 [6]: 21.5 µM | IC50 (Plasmodium falciparum [7]): 0.0187 µM

C[C@H]1[C@@H](OC(=O)CCNCCCCNc2ccnc3cc(Cl)ccc23)O[C@@H]2O[C@@]3(C)CC[C@H]4[C@H](C)CC[C@@H]1[C@@]24OO3
Ratio IC50 (Plasmodium falciparum [1]): 1.1 | IC50 (HeLa [2]): 10.1 µM | IC50 [3]: 8.99 µM | Ratio IC50 (HeLa [4]): 2 | IC50 (Plasmodium falciparum [5]): 0.0275 µM | IC50 [6]: 32.4 µM | IC50 (Plasmodium falciparum [7]): 0.024 µM

C[C@H]1[C@@H](OC(=O)CCNCCCCCCNc2ccnc3cc(Cl)ccc23)O[C@@H]2O[C@@]3(C)CC[C@H]4[C@H](C)CC[C@@H]1[C@@]24OO3
Ratio IC50 (Plasmodium falciparum [1]): 0.9 | IC50 (HeLa [2]): 0.37 µM | IC50 [3]: 3.4 µM | Ratio IC50 (HeLa [4]): 30.7 | IC50 (Plasmodium falciparum [5]): 0.0536 µM | IC50 [6]: 19 µM | IC50 (Plasmodium falciparum [7]): 0.0556 µM

C[C@H]1[C@@H](OC(=O)CCN2CCN(c3ccnc4cc(Cl)ccc34)CC2)O[C@@H]2O[C@@]3(C)CC[C@H]4[C@H](C)CC[C@@H]1[C@@]24OO3
Ratio IC50 (Plasmodium falciparum [1]): 1 | IC50 (HeLa [2]): 6.58 µM | IC50 [3]: 14 µM | Ratio IC50 (HeLa [4]): 4.5 | IC50 (Plasmodium falciparum [5]): 0.01 µM | IC50 [6]: 44.6 µM | IC50 (Plasmodium falciparum [7]): 0.0101 µM

C[C@H]1[C@H](OC(=O)CCN2CCCC2)O[C@@H]2O[C@@]3(C)CC[C@H]4[C@H](C)CC[C@@H]1[C@@]24OO3
Ratio IC50 (Plasmodium falciparum [1]): 1 | IC50 (Plasmodium falciparum [5]): 0.0114 µM | IC50 (Plasmodium falciparum [7]): 0.0113 µM

C[C@H]1[C@H](OC(=O)CCN2CCOCC2)O[C@@H]2O[C@@]3(C)CC[C@H]4[C@H](C)CC[C@@H]1[C@@]24OO3
Ratio IC50 (Plasmodium falciparum [1]): 1.4 | IC50 (HeLa [2]): 4.8 µM | IC50 [3]: 27.3 µM | Ratio IC50 (HeLa [4]): 5.7 | IC50 (Plasmodium falciparum [5]): 0.00902 µM | IC50 [6]: > 50 µM | IC50 (Plasmodium falciparum [7]): 0.00623 µM

CCN(CC)CCC(=O)O[C@@H]1O[C@@H]2O[C@@]3(C)CC[C@H]4[C@H](C)CC[C@@H]([C@H]1C)[C@@]24OO3
Ratio IC50 (Plasmodium falciparum [1]): 1 | IC50 (HeLa [2]): 6.02 µM | IC50 [3]: 30.4 µM | Ratio IC50 (HeLa [4]): 5 | IC50 (Plasmodium falciparum [5]): 0.0136 µM | IC50 [6]: > 50 µM | IC50 (Plasmodium falciparum [7]): 0.013 µM

C[C@H]1[C@H](OC(=O)CCN(C)Cc2ccccc2)O[C@@H]2O[C@@]3(C)CC[C@H]4[C@H](C)CC[C@@H]1[C@@]24OO3
Ratio IC50 (Plasmodium falciparum [1]): 1.2 | IC50 (HeLa [2]): 4.48 µM | IC50 [3]: 25 µM | Ratio IC50 (HeLa [4]): 5.6 | IC50 (Plasmodium falciparum [5]): 0.00616 µM | IC50 [6]: > 50 µM | IC50 (Plasmodium falciparum [7]): 0.0053 µM

CC(C)NCCC(=O)O[C@@H]1O[C@@H]2O[C@@]3(C)CC[C@H]4[C@H](C)CC[C@@H]([C@H]1C)[C@@]24OO3
Ratio IC50 (Plasmodium falciparum [1]): 1.1 | IC50 (HeLa [2]): 13 µM | IC50 (Plasmodium falciparum [5]): 0.0187 µM | IC50 (Plasmodium falciparum [7]): 0.0169 µM

C[C@H]1[C@H](OC(=O)CCN2CCNCC2)O[C@@H]2O[C@@]3(C)CC[C@H]4[C@H](C)CC[C@@H]1[C@@]24OO3
Ratio IC50 (Plasmodium falciparum [1]): 1.7 | IC50 (HeLa [2]): 8.91 µM | IC50 [3]: 31 µM | Ratio IC50 (HeLa [4]): 3.5 | IC50 (Plasmodium falciparum [5]): 0.016 µM | IC50 [6]: > 50 µM | IC50 (Plasmodium falciparum [7]): 0.00922 µM

C[C@H]1[C@H](OC(=O)CCN2CCN(C)CC2)O[C@@H]2O[C@@]3(C)CC[C@H]4[C@H](C)CC[C@@H]1[C@@]24OO3
Ratio IC50 (Plasmodium falciparum [1]): 1.8 | IC50 (HeLa [2]): 6.55 µM | IC50 [3]: 27.2 µM | Ratio IC50 (HeLa [4]): 4.1 | IC50 (Plasmodium falciparum [5]): 0.0126 µM | IC50 [6]: > 50 µM | IC50 (Plasmodium falciparum [7]): 0.00716 µM

C[C@H]1[C@H](OC(=O)CCN2CCN(c3ccccc3)CC2)O[C@@H]2O[C@@]3(C)CC[C@H]4[C@H](C)CC[C@@H]1[C@@]24OO3
Ratio IC50 (Plasmodium falciparum [1]): 1.3 | IC50 (HeLa [2]): 5.76 µM | IC50 [3]: 27.6 µM | Ratio IC50 (HeLa [4]): 4.8 | IC50 (Plasmodium falciparum [5]): 0.0073 µM | IC50 [6]: > 50 µM | IC50 (Plasmodium falciparum [7]): 0.00559 µM

NCCCNc1ccnc2cc(Cl)ccc12
Ratio IC50 (Plasmodium falciparum [1]): 5.2 | IC50 (HeLa [2]): 9.83 µM | IC50 (Plasmodium falciparum [5]): 1.25 µM | IC50 (Plasmodium falciparum [7]): 0.24 µM

NCCCCNc1ccnc2cc(Cl)ccc12
Ratio IC50 (Plasmodium falciparum [1]): 4.7 | IC50 (HeLa [2]): 11.2 µM | IC50 (Plasmodium falciparum [5]): 2.27 µM | IC50 (Plasmodium falciparum [7]): 0.483 µM

NCCCCCCNc1ccnc2cc(Cl)ccc12
Ratio IC50 (Plasmodium falciparum [1]): 0.9 | IC50 (HeLa [2]): 15.7 µM | IC50 (Plasmodium falciparum [5]): 1.86 µM | IC50 (Plasmodium falciparum [7]): 2.16 µM

Clc1ccc2c(N3CCNCC3)ccnc2c1
Ratio IC50 (Plasmodium falciparum [1]): 1.1 | IC50 (HeLa [2]): 27.6 µM | IC50 (Plasmodium falciparum [5]): 1.64 µM | IC50 (Plasmodium falciparum [7]): 1.46 µM

NCCNc1ccnc2cc(Cl)ccc12
Ratio IC50 (Plasmodium falciparum [1]): 4.9 | IC50 (HeLa [2]): 7.22 µM | IC50 (Plasmodium falciparum [5]): 1.14 µM | IC50 (Plasmodium falciparum [7]): 0.231 µM

C[C@@H]1CC[C@H]2[C@@H](C)C(=O)O[C@@H]3O[C@@]4(C)CC[C@@H]1[C@]32OO4 [ARTEMISININ]
Ratio IC50 (Plasmodium falciparum [1]): 1

C[C@H]1[C@@H](O)O[C@@H]2O[C@@]3(C)CC[C@H]4[C@H](C)CC[C@@H]1[C@@]24OO3 [ARTENIMOL]
Ratio IC50 (Plasmodium falciparum [1]): 0.75 | IC50 (Plasmodium falciparum [5]): 0.003 µM | IC50 (Plasmodium falciparum [7]): 0.0041 µM
